Key:
AMBEL (Ragweed, Common) [1] = assay: Postemergence herbicidal evaluation; format: in vivo, Ambrosia artemisifolia; details: postemergence
Method in brief: (§1)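 Rate range approx. 0.0156–0.500 kg/ha. Foliar application at 40 psi to ~2-week seedlings; surfactant 0.5% TWEEN 20 in 50/50 acetone/water. Evaluation 4–5 wk post-treatment by 0–9 visual injury score, means of replicate tests.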

[2] = test system: IPOHE (Morningglory, Ivyleaf); assay: Postemergence herbicidal evaluation; format: in vivo, Ipomoea hederacea; details: postemergence
Method in brief: as §1

[3] = test system: GLXMAW (Soybean, Williams); assay: Postemergence herbicidal evaluation; format: in vivo, Glycine max, (L.) Merr. cv Williams; details: postemergence
Method in brief: as §1

ZEAMX (Corn, Field) = assay: Postemergence herbicidal evaluation; format: in vivo, Zea mays; details: postemergence
Method in brief: as §1

ABUTH (Velvetleaf) = assay: Preemergence herbicidal evaluation; format: in vivo, Abutilon theophrasti; details: preemergence, rated 4-5 weeks after treatment, 0-9 scale
Method in brief: (§2)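 Herbicidal effect scored visually, 0-9, at 4 to 5 weeks against a control; compound applied preemergence by aqueous acetone spray to seeded soil at about 0.0156 to 0.500 kg/ha.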

AMBEL (Ragweed, Common) [4] = assay: Preemergence herbicidal evaluation; format: in vivo, Ambrosia artemisifolia; details: preemergence, rated 4-5 weeks after treatment, 0-9 scale
Method in brief: as §2

CASOB (Sicklepod) = assay: Preemergence herbicidal evaluation; format: in vivo, Cassia obtusifolia; details: preemergence, rated 4-5 weeks after treatment, 0-9 scale
Method in brief: as §2

GALAP (Galium) = assay: Preemergence herbicidal evaluation; format: in vivo, Galium aparine; details: preemergence, rated 4-5 weeks after treatment, 0-9 scale
Method in brief: as §2

ECHCG (Barnyardgrass) = assay: Preemergence herbicidal evaluation; format: in vivo, Echinochloa crus-galli; details: preemergence, rated 4-5 weeks after treatment, 0-9 scale
Method in brief: as §2

SETVI (Foxtail, Green) = assay: Preemergence herbicidal evaluation; format: in vivo, Setaria viridis; details: preemergence, rated 4-5 weeks after treatment, 0-9 scale
Method in brief: as §2

[5] = test system: GLXMAW (Soybean, Williams); assay: Preemergence herbicidal evaluation; format: in vivo, Glycine max, (L.) Merr. cv Williams; details: preemergence, rated 4-5 weeks after treatment, 0-9 scale
Method in brief: as §2

CYPSE (Flatsedge) = assay: Preemergence weed control under flooded paddy conditions; format: in vivo, Cyperus serotinus; details: rated 3-4 weeks after treatment
Method in brief: (§3)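 Seeds or propagules sown in silt loam kept flooded 1.5-3 cm; compounds in 50/50 acetone/water pipetted into flood water at about 0.0313 to 0.500 kg/ha. Greenhouse; visual 0-9 rating versus untreated control 3-4 weeks after treatment.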

[6] = test system: SAGPY (Arrowhead (Pygmaea)); assay: as above; format: in vivo, Sagittaria pygmaea; details: rated 3-4 weeks after treatment
Method in brief: as §3

[7] = test system: ECHORC (Watergrass (Calif.)); assay: Postemergence weed control under flooded paddy conditions; format: in vivo, Echinochloa oryzoides; details: postemergence weeds, rated 3 to 4 weeks after treatment
Method in brief: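 Injury ratings (0–9 scale covering stand, vigor, malformation, size, chlorosis and overall appearance versus control) were made three to four weeks after treatment. Test material, about 0.0313 to 0.500 kg/ha a.i. in 50/50 v/v aqueous/acetone, was added to flood water 1.5 to 3 cm deep over 3 to 5 cm weeds and 1.5 to 2.5 leaf rice.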

`CN1C(=O)C(CC(=O)NS(=O)(=O)c2ccccc2)SC1=Nc1cc(-n2c(=O)cc(C(F)(F)F)n(C)c2=O)c(F)cc1Cl` (stereo not drawn) [Compound 102, 2-{{2-Chloro-5-[3,6-dihydro-3-methyl-2,6-dioxo-4-(trifluoromethyl)-1(2H)-pyrimidinyl]-4-fluorophenyl}imino}-3-methyl-4-oxo-N-(phenylsulfonyl)-5-thiazolidineacetamide] was tested, and the “Herbicidal rating AMBEL” value (AMBEL (Ragweed, Common) [1]; rate 0.0156 kg/ha) was 7.0, the “Herbicidal rating AMBEL” value (AMBEL (Ragweed, Common) [1]; rate 0.0313 kg/ha) was 9.0 and the “Herbicidal rating AMBEL” value (AMBEL (Ragweed, Common) [1]; rate 0.0625 kg/ha) was 7.0. The “Herbicidal rating AMBEL” value (AMBEL (Ragweed, Common) [1]; rate 0.1250 kg/ha) was 9.0, the “Herbicidal rating IPOHE” value ([2]; rate 0.0156 kg/ha) was 9.0 and the “Herbicidal rating IPOHE” value ([2]; rate 0.0313 kg/ha) was 9.0. For the same compound, the “Herbicidal rating IPOHE” value ([2]; rate 0.0625 kg/ha) was 9.0, the “Herbicidal rating IPOHE” value ([2]; rate 0.1250 kg/ha) was 9.0 and the “Herbicidal rating GLXMAW” value ([3]; rate 0.0156 kg/ha) was 5.0. The “Herbicidal rating GLXMAW” value ([3]; rate 0.0313 kg/ha) was 5.0, the “Herbicidal rating GLXMAW” value ([3]; rate 0.0625 kg/ha) was 6.0 and the “Herbicidal rating GLXMAW” value ([3]; rate 0.1250 kg/ha) was 7.5. For the same compound, the “Herbicidal rating ZEAMX” value (ZEAMX (Corn, Field); rate 0.0156 kg/ha) was 4.5, the “Herbicidal rating ZEAMX” value (ZEAMX (Corn, Field); rate 0.0313 kg/ha) was 5.0 and the “Herbicidal rating ZEAMX” value (ZEAMX (Corn, Field); rate 0.0625 kg/ha) was 5.5. For the same compound, the “Herbicidal rating ZEAMX” value (ZEAMX (Corn, Field); rate 0.1250 kg/ha) was 6.5, the ABUTH rating (ABUTH (Velvetleaf); 0.0156 kg/ha) was 0.0 and the ABUTH rating (ABUTH (Velvetleaf); 0.0313 kg/ha) was 0.0. The ABUTH rating (ABUTH (Velvetleaf); 0.0625 kg/ha) was 9.0, the ABUTH rating (ABUTH (Velvetleaf); 0.2500 kg/ha) was 6.0 and the ABUTH rating (ABUTH (Velvetleaf); 0.5000 kg/ha) was 9.0. For the same compound, the AMBEL rating (AMBEL (Ragweed, Common) [4]; 0.0156 kg/ha) was 0.0, the AMBEL rating (AMBEL (Ragweed, Common) [4]; 0.0313 kg/ha) was 0.0 and the AMBEL rating (AMBEL (Ragweed, Common) [4]; 0.0625 kg/ha) was 0.0. For the same compound, the AMBEL rating (AMBEL (Ragweed, Common) [4]; 0.2500 kg/ha) was 4.0, the AMBEL rating (AMBEL (Ragweed, Common) [4]; 0.5000 kg/ha) was 7.0 and the CASOB rating (CASOB (Sicklepod); 0.0156 kg/ha) was 0.0. The CASOB rating (CASOB (Sicklepod); 0.0313 kg/ha) was 0.0, the CASOB rating (CASOB (Sicklepod); 0.0625 kg/ha) was 0.0 and the CASOB rating (CASOB (Sicklepod); 0.2500 kg/ha) was 0.0. For the same compound, the CASOB rating (CASOB (Sicklepod); 0.5000 kg/ha) was 4.0, the GALAP rating (GALAP (Galium); 0.0156 kg/ha) was 0.0 and the GALAP rating (GALAP (Galium); 0.0313 kg/ha) was 1.0. The GALAP rating (GALAP (Galium); 0.0625 kg/ha) was 0.0, the GALAP rating (GALAP (Galium); 0.2500 kg/ha) was 1.0 and the GALAP rating (GALAP (Galium); 0.5000 kg/ha) was 4.0. It also gave an ECHCG rating (ECHCG (Barnyardgrass); 0.0156 kg/ha) of 0.0, an ECHCG rating (ECHCG (Barnyardgrass); 0.0313 kg/ha) of 0.0 and an ECHCG rating (ECHCG (Barnyardgrass); 0.0625 kg/ha) of 0.0. For the same compound, the ECHCG rating (ECHCG (Barnyardgrass); 0.2500 kg/ha) was 0.0, the ECHCG rating (ECHCG (Barnyardgrass); 0.5000 kg/ha) was 0.0 and the SETVI rating (SETVI (Foxtail, Green); 0.0156 kg/ha) was 1.0. The SETVI rating (SETVI (Foxtail, Green); 0.0313 kg/ha) was 1.0, the SETVI rating (SETVI (Foxtail, Green); 0.0625 kg/ha) was 0.0 and the SETVI rating (SETVI (Foxtail, Green); 0.2500 kg/ha) was 0.0. The SETVI rating (SETVI (Foxtail, Green); 0.5000 kg/ha) was 1.0, the GLXMAW rating ([5]; 0.0156 kg/ha) was 0.0 and the GLXMAW rating ([5]; 0.0313 kg/ha) was 0.0. For the same compound, the GLXMAW rating ([5]; 0.0625 kg/ha) was 0.0, the GLXMAW rating ([5]; 0.2500 kg/ha) was 1.0 and the GLXMAW rating ([5]; 0.5000 kg/ha) was 4.0. The “CYPSE herbicidal effect rating” value (CYPSE (Flatsedge); 0.2500 kg/ha) was 0.0, the “CYPSE herbicidal effect rating” value (CYPSE (Flatsedge); 0.5000 kg/ha) was 0.0 and the “SAGPY herbicidal effect rating” value ([6]; 0.2500 kg/ha) was 0.0. The “SAGPY herbicidal effect rating” value ([6]; 0.5000 kg/ha) was 0.0, the “Herbicidal rating ECHORC” value ([7]; Rate 0.2500 kg/ha) was 0.0 and the “Herbicidal rating ECHORC” value ([7]; Rate 0.5000 kg/ha) was 2.0.

— patent US20020137929A1, “1 - (3-heterocyclylphenyl) isothiourea, -isourea, -guanidine and -amidine herbicidal agents” (Intellectual Property Department, BASF Aktiengesellschaft, priority 1998, published 2002)
